According to PubChem BioAssay (NCI):
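Method: 48-hour compound exposure of cells in 96-well plates, five concentrations, linear interpolation of endpoints. TGI denotes the concentration required for complete inhibition of growth.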

Columns and labels:
Experiment in all cases: NCI anticancer screen, dose series, 48 h
MOLT-4 leukemia = system: MOLT-4 leukemia
HCT-116 colon = system: HCT-116 colon
NCI-H460 lung = system: NCI-H460 lung
KM12 colon = system: KM12 colon
TK-10 renal = system: TK-10 renal
SK-OV-3 ovarian = system: SK-OV-3 ovarian
SF-268 CNS = system: SF-268 CNS
M14 melanoma = system: M14 melanoma
MDA-N = system: MDA-N
HT29 colon = system: HT29 colon
CCRF-CEM leukemia = system: CCRF-CEM leukemia
HOP-92 NSCLC = system: HOP-92 NSCLC
A498 renal = system: A498 renal
NCI-H226 lung = system: NCI-H226 lung
HOP-62 NSCLC = system: HOP-62 NSCLC
CAKI-1 renal = system: CAKI-1 renal
SK-MEL-28 melanoma = system: SK-MEL-28 melanoma
OVCAR-8 ovarian = system: OVCAR-8 ovarian
LOX IMVI melanoma = system: LOX IMVI melanoma
RPMI-8226 leukemia = system: RPMI-8226 leukemia
K-562 leukemia = system: K-562 leukemia
A549 NSCLC = system: A549 NSCLC
DU-145 prostate = system: DU-145 prostate
MALME-3M melanoma = system: MALME-3M melanoma
UACC-62 melanoma = system: UACC-62 melanoma
IGROV1 ovarian = system: IGROV1 ovarian
SF-539 CNS = system: SF-539 CNS
HS 578T breast = system: HS 578T breast
SN12C renal = system: SN12C renal
U251 CNS = system: U251 CNS
EKVX NSCLC = system: EKVX NSCLC
UACC-257 melanoma = system: UACC-257 melanoma
NCI/ADR-RES ovarian = system: NCI/ADR-RES ovarian
SK-MEL-2 melanoma = system: SK-MEL-2 melanoma
BT-549 breast = system: BT-549 breast
SF-295 CNS = system: SF-295 CNS
MDA-MB-435 = system: MDA-MB-435
786-0 renal = system: 786-0 renal
T-47D breast = system: T-47D breast
OVCAR-4 ovarian = system: OVCAR-4 ovarian
MCF7 breast = system: MCF7 breast
SW-620 colon = system: SW-620 colon
SNB-75 CNS = system: SNB-75 CNS
OVCAR-3 ovarian = system: OVCAR-3 ovarian
HCT-15 colon = system: HCT-15 colon
ACHN renal = system: ACHN renal
COLO 205 colon = system: COLO 205 colon
OVCAR-5 ovarian = system: OVCAR-5 ovarian
UO-31 renal = system: UO-31 renal
SNB-19 CNS = system: SNB-19 CNS
SK-MEL-5 melanoma = system: SK-MEL-5 melanoma
MDA-MB-231 breast = system: MDA-MB-231 breast
PC-3 prostate = system: PC-3 prostate
RXF 393 renal = system: RXF 393 renal
SR leukemia = system: SR leukemia
HCC-2998 colon = system: HCC-2998 colon
NCI-H23 lung = system: NCI-H23 lung
NCI-H522 lung = system: NCI-H522 lung

## CCOC(=O)c1nc2ccccc2nc1Oc1ccc(C(=O)OC)cc1
MOLT-4 leukemia
  TGI: > 100 µM
HCT-116 colon
  TGI: > 100 µM
NCI-H460 lung
  TGI: > 100 µM
KM12 colon
  TGI: > 100 µM
TK-10 renal
  TGI: > 100 µM
SK-OV-3 ovarian
  TGI: > 100 µM
SF-268 CNS
  TGI: > 100 µM
M14 melanoma
  TGI: > 100 µM
MDA-N
  TGI: > 100 µM
HT29 colon
  TGI: > 100 µM
CCRF-CEM leukemia
  TGI: > 100 µM
HOP-92 NSCLC
  TGI: > 100 µM
A498 renal
  TGI: > 100 µM
NCI-H226 lung
  TGI: > 100 µM
HOP-62 NSCLC
  TGI: > 100 µM
CAKI-1 renal
  TGI: > 100 µM
SK-MEL-28 melanoma
  TGI: > 100 µM
OVCAR-8 ovarian
  TGI: > 100 µM
LOX IMVI melanoma
  TGI: > 100 µM
RPMI-8226 leukemia
  TGI: > 100 µM
K-562 leukemia
  TGI: > 100 µM
A549 NSCLC
  TGI: > 100 µM
DU-145 prostate
  TGI: > 100 µM
MALME-3M melanoma
  TGI: > 100 µM
UACC-62 melanoma
  TGI: > 100 µM
IGROV1 ovarian
  TGI: > 100 µM
SF-539 CNS
  TGI: > 100 µM
HS 578T breast
  TGI: > 100 µM
SN12C renal
  TGI: > 100 µM
U251 CNS
  TGI: > 100 µM
EKVX NSCLC
  TGI: > 100 µM
UACC-257 melanoma
  TGI: > 100 µM
NCI/ADR-RES ovarian
  TGI: > 100 µM
SK-MEL-2 melanoma
  TGI: > 100 µM
BT-549 breast
  TGI: > 100 µM
SF-295 CNS
  TGI: > 100 µM
MDA-MB-435
  TGI: > 100 µM
786-0 renal
  TGI: > 100 µM
T-47D breast
  TGI: > 100 µM
OVCAR-4 ovarian
  TGI: > 100 µM
MCF7 breast
  TGI: > 100 µM
SW-620 colon
  TGI: > 100 µM
SNB-75 CNS
  TGI: > 100 µM
OVCAR-3 ovarian
  TGI: > 100 µM
HCT-15 colon
  TGI: > 100 µM
ACHN renal
  TGI: > 100 µM
COLO 205 colon
  TGI: > 100 µM
OVCAR-5 ovarian
  TGI: > 100 µM
UO-31 renal
  TGI: > 100 µM
SNB-19 CNS
  TGI: > 100 µM
SK-MEL-5 melanoma
  TGI: > 100 µM
MDA-MB-231 breast
  TGI: > 100 µM
PC-3 prostate
  TGI: > 100 µM
RXF 393 renal
  TGI: > 100 µM

## Cc1c(-c2ccccc2)nn2cc(-c3ccccc3)nnc12
MOLT-4 leukemia
  TGI: > 100 µM
HCT-116 colon
  TGI: > 100 µM
NCI-H460 lung
  TGI: 51.2 µM
KM12 colon
  TGI: > 100 µM
TK-10 renal
  TGI: > 100 µM
SK-OV-3 ovarian
  TGI: > 100 µM
SR leukemia
  TGI: > 100 µM
SF-268 CNS
  TGI: > 100 µM
M14 melanoma
  TGI: > 100 µM
MDA-N
  TGI: > 100 µM
HT29 colon
  TGI: > 100 µM
CCRF-CEM leukemia
  TGI: > 100 µM
HOP-92 NSCLC
  TGI: 88.3 µM
A498 renal
  TGI: > 100 µM
NCI-H226 lung
  TGI: 49.5 µM
HOP-62 NSCLC
  TGI: > 100 µM
CAKI-1 renal
  TGI: > 100 µM
SK-MEL-28 melanoma
  TGI: > 100 µM
OVCAR-8 ovarian
  TGI: > 100 µM
LOX IMVI melanoma
  TGI: 41.1 µM
RPMI-8226 leukemia
  TGI: > 100 µM
K-562 leukemia
  TGI: > 100 µM
A549 NSCLC
  TGI: 52.5 µM
DU-145 prostate
  TGI: > 100 µM
MALME-3M melanoma
  TGI: 39.6 µM
UACC-62 melanoma
  TGI: 92.3 µM
IGROV1 ovarian
  TGI: > 100 µM
HS 578T breast
  TGI: 75.6 µM
SN12C renal
  TGI: > 100 µM
U251 CNS
  TGI: 85.7 µM
UACC-257 melanoma
  TGI: > 100 µM
NCI/ADR-RES ovarian
  TGI: > 100 µM
HCC-2998 colon
  TGI: 34 µM
NCI-H23 lung
  TGI: > 100 µM
SK-MEL-2 melanoma
  TGI: 47 µM
BT-549 breast
  TGI: 87.3 µM
SF-295 CNS
  TGI: > 100 µM
MDA-MB-435
  TGI: > 100 µM
786-0 renal
  TGI: > 100 µM
NCI-H522 lung
  TGI: 55 µM
T-47D breast
  TGI: > 100 µM
OVCAR-4 ovarian
  TGI: > 100 µM
SW-620 colon
  TGI: 49.5 µM
SNB-75 CNS
  TGI: > 100 µM
OVCAR-3 ovarian
  TGI: > 100 µM
HCT-15 colon
  TGI: 44.5 µM
ACHN renal
  TGI: > 100 µM
COLO 205 colon
  TGI: 62 µM
OVCAR-5 ovarian
  TGI: > 100 µM
UO-31 renal
  TGI: > 100 µM
SNB-19 CNS
  TGI: > 100 µM
SK-MEL-5 melanoma
  TGI: 41.4 µM
MDA-MB-231 breast
  TGI: 62.9 µM
PC-3 prostate
  TGI: > 100 µM
RXF 393 renal
  TGI: 47.8 µM
